# From patent US9725449B2, “Tricyclic compounds as anticancer agents” (BRISTOL-MYERS SQUIBB COMPANY, priority 2015, dated 2017)
# Target: BRD4 (Homo sapiens, UniProt O60885)
# Assay: Time resolved fluorescence resonance energy transfer (TR-FRET) binding assay, bromodomain BRD4
# Details: one of the FRET assays described; read-out: FRET BRD4 IC50
row,Compound,IC50
1,"[2H]C([2H])([2H])c1nnn(C)c1-c1cnc2c3ccc(C(C)=O)nc3n([C@H](c3ccccc3)C3CCOCC3)c2c1 [Example 202, 1-{5-[4-(^2H3)Methyl-1-methyl-1H-1,2,3-triazol-5-yl]-8-[(S)-oxan-4-yl(phenyl)methyl]-3,8,10-triazatricyclo[7.4.0.0^2,^7]trideca-1(9),2(7),3,5,10,12-hexaen-11-yl}ethan-1-one]",< 10 nM
2,"Cc1nnn(C)c1-c1cnc2c3ccc(N4CCC(C#N)CC4)nc3n([C@H](c3ccccc3F)C3CCOCC3)c2c1 [Example 274, 1-[5-(Dimethyl-1H-1,2,3-triazol-5-yl)-8-[(S)-(2-fluorophenyl)(oxan-4-yl)methyl]-3,8,10-triazatricyclo[7.4.0.0^2,^7]trideca-1(13),2(7),3,5,9,11-hexaen-11-yl]piperidine-4-carbonitrile]",< 10 nM
3,"Cc1cnn(C)c1-c1cnc2c3ccc(S(C)(=O)=O)nc3n([C@H](c3ccccc3)C3CCOCC3)c2c1 [Example 146, 5-(1,4-Dimethyl-1H-pyrazol-5-yl)-11-methanesulfonyl-8-[(S)-oxan-4-yl(phenyl)methyl]-3,8,10-triazatricyclo[7.4.0.0^2,^7]trideca-1(13),2(7),3,5,9,11-hexaene]",< 1500 nM
4,"Cc1nnn(C)c1-c1cnc2c3ccc(C4=CCN(C)CC4)nc3n([C@H](c3ccccc3F)C3CCOCC3)c2c1 [Example 230, 5-(Dimethyl-1H-1,2,3-triazol-5-yl)-8-[(S)-(2-fluorophenyl)(oxan-4-yl)methyl]-11-(1-methyl-1,2,3,6-tetrahydropyridin-4-yl)-3,8,10-triazatricyclo[7.4.0.0^2,^7]trideca-1(13),2(7),3,5,9,11-hexaene]",< 10 nM
5,"Cc1nnn(C)c1-c1cnc2c3cnc(N4CCN(C5CC5)CC4)nc3n([C@H](c3ccccc3)C3CCOCC3)c2c1 [Example 157, 11-(4-Cyclopropylpiperazin-1-yl)-5-(dimethyl-1H-1,2,3-triazol-5-yl)-8-[(S)-oxan-4-yl(phenyl)methyl]-3,8,10,12-tetraazatricyclo[7.4.0.0^2,^7]trideca-1(9),2(7),3,5,10,12-hexaene]",< 10 nM
6,"[2H]C([2H])([2H])c1nnn(C)c1-c1cnc2c3c(NCC(F)F)nccc3n([C@H](c3ccccc3)C3CCOCC3)c2c1 [Example 133, N-(2,2-Difluoroethyl)-5-[4-(^2H3)methyl-1-methyl-1H-1,2,3-triazol-5-yl]-8-[(S)-oxan-4-yl(phenyl)methyl]-3,8,12-triazatricyclo[7.4.0.0^2,^7]trideca-1(13),2(7),3,5,9,11-hexaen-13-amine]",< 1 nM
7,"[2H]C([2H])([2H])c1nnn(C)c1-c1cnc2c3cnc(OC)cc3n([C@H](c3ccccc3)C3CCOCC3)c2c1 [Example 287, 11-Methoxy-5-[4-(^2H3)methyl-1-methyl-1H-1,2,3-triazol-5-yl]-8-[(S)-oxan-4-yl(phenyl)methyl]-3,8,12-triazatricyclo[7.4.0.0^2,^7]trideca-1(9),2(7),3,5,10,12-hexaene]",< 1 nM
8,"Cc1nnn(C)c1-c1cnc2c3ccc(-c4c(C)nnn4C)nc3n([C@H](c3ccccc3)C3CCOCC3)c2c1 [Example 163, 5,11-Bis(dimethyl-1H-1,2,3-triazol-5-yl)-8-[(S)-oxan-4-yl(phenyl)methyl]-3,8,10-triazatricyclo[7.4.0.0^2,^7]trideca-1(9),2(7),3,5,10,12-hexaene]",< 1 nM
9,"COc1ncc(S(C)(=O)=O)c2c1c1ncc(-c3c(C)nnn3C)cc1n2[C@H](c1ccc(F)cc1)C1CCOCC1 [Example 52, 5-(Dimethyl-1H-1,2,3-triazol-5-yl)-8-[(S)-(4-fluorophenyl)(oxan-4-yl)methyl]-10-methanesulfonyl-13-methoxy-3,8,12-triazatricyclo[7.4.0.0^2,^7]trideca-1(13),2(7),3,5,9,11-hexaene]",< 1 nM
10,"Cc1nnn(C)c1-c1cnc2c3ccnc(OCCN(C)C)c3n([C@H](c3ccccc3)C3CCOCC3)c2c1 [Example 10, (2-{[5-(Dimethyl-1H-1,2,3-triazol-5-yl)-8-[(S)-oxan-4-yl(phenyl)methyl]-3,8,11-triazatricyclo[7.4.0.0^2,^7]trideca-1(13),2(7),3,5,9,11-hexaen-10-yl]oxy}ethyl)dimethylamine]",< 10 nM
11,"CCCC(c1ncccc1F)n1c2cc(-c3c(C)nnn3C)ncc2c2ncc(C(C)(C)O)cc21 (single isomer, unassigned) [Example 371]",< 10 nM
12,"Cc1nnn(C)c1-c1cnc2c3ccc(N4CCN(C5CCN(C)CC5)CC4)nc3n([C@H](c3ccccc3F)C3CCOCC3)c2c1 [Example 270, 5-(Dimethyl-1H-1,2,3-triazol-5-yl)-8-[(S)-(2-fluorophenyl)(oxan-4-yl)methyl]-11-[4-(1-methylpiperidin-4-yl)piperazin-1-yl]-3,8,10-triazatricyclo[7.4.0.0^2,^7]trideca-1(13),2(7),3,5,9,11-hexaene]",< 1 nM
13,"Cc1noc(C)c1-c1cnc2c3cnc(Cl)cc3n(C(c3ncccc3F)C3CCOCC3)c2c1 (stereo not shown) [Example 324, 11-Chloro-5-(dimethyl-1,2-oxazol-4-yl)-8-[(3-fluoropyridin-2-yl)(oxan-4-yl)methyl]-3,8,12-triazatricyclo[7.4.0.0^2,^7]trideca-1(9),2(7),3,5,10,12-hexaene]",< 1500 nM
14,"COC(=O)c1cnc(OC)c2c3ncc(-c4c(C)nnn4C)cc3n([C@H](c3ccccc3)C3CCOCC3)c12 [Example 135, Methyl 5-(dimethyl-1H-1,2,3-triazol-5-yl)-13-methoxy-8-[(S)-oxan-4-yl(phenyl)methyl]-3,8,12-triazatricyclo[7.4.0.0^2,^7]trideca-1(9),2,4,6,10,12-hexaene-10-carboxylate]",< 1 nM
15,"COc1ncc(C(C)(C)O)c2c1c1ncc(-c3c(C)noc3C)cc1n2[C@H](c1ccccc1)C1CCOCC1 [Example 141, 2-[5-(Dimethyl-1,2-oxazol-4-yl)-13-methoxy-8-[(S)-oxan-4-yl(phenyl)methyl]-3,8,12-triazatricyclo[7.4.0.0^2,^7]trideca-1(9),2,4,6,10,12-hexaen-10-yl]propan-2-ol]",< 10 nM
16,"[2H]C([2H])([2H])c1nnn(C)c1-c1cnc2c3ccc(N4CCN(C(C)C)CC4)nc3n([C@H](c3ccccc3)C3CCOCC3)c2c1 [Example 153, 5-[4-(^2H3)Methyl-1-methyl-1H-1,2,3-triazol-5-yl]-8-[(S)-oxan-4-yl(phenyl)methyl]-11-[4-(propan-2-yl)piperazin-1-yl]-3,8,10-triazatricyclo[7.4.0.0^2,^7]trideca-1(9),2(7),3,5,10,12-hexaene]",< 10 nM
17,"[2H]C([2H])([2H])c1nnn(C)c1-c1nc2c(cc1F)c1ncc(C(C)(C)O)cc1n2[C@H](c1ccccc1)C1CCOCC1 [Example 361, 2-{12-Fluoro-11-[4-(^2H3)methyl-1-methyl-1H-1,2,3-triazol-5-yl]-8-[(S)-oxan-4-yl(phenyl)methyl]-3,8,10-triazatricyclo[7.4.0.0^2,^7]trideca-1(9),2(7),3,5,10,12-hexaen-5-yl}propan-2-ol]",< 10 nM
18,"[2H]C([2H])([2H])c1nnn(C)c1-c1cnc2c3c(OCC4CC4)ncc(S(C)(=O)=O)c3n([C@H](c3ccc(F)cc3)C3CCOCC3)c2c1 [Example 78, 13-(Cyclopropylmethoxy)-8-[(S)-(4-fluorophenyl)(oxan-4-yl)methyl]-10-methanesulfonyl-5-[4-(^2H3)methyl-1-methyl-1H-1,2,3-triazol-5-yl]-3,8,12-triazatricyclo[7.4.0.0^2,^7]trideca-1(13),2(7),3,5,9,11-hexaene]",< 1 nM
19,"COc1nccc2c3ncc(-c4c(C)nnn4C)cc3n(C(c3ccccc3F)C3CCOCC3)c12 (single isomer, unassigned) [Example 19, 5-(Dimethyl-1H-1,2,3-triazol-5-yl)-8-[(2-fluorophenyl)(oxan-4-yl)methyl]-10-methoxy-3,8,11-triazatricyclo[7.4.0.0^2,^7]trideca-1(13),2(7),3,5,9,11-hexaene]",< 10 nM
20,"Cc1nnn(C)c1-c1cnc2c3c(=O)[nH]c(Cl)cc3n(C(c3ncccc3F)C3CCOCC3)c2c1 (stereo not shown) [Example 307, 11-Chloro-8-[(3-fluoropyridin-2-yl)(oxan-4-yl)methyl]-5-[4-(^2H3)methyl-1-methyl-1H-1,2,3-triazol-5-yl]-3,8,12-triazatricyclo[7.4.0.0^2,^7]trideca-1(9),2(7),3,5,10-pentaen-13-one]",< 10 nM
21,"Cc1nnn(C)c1-c1cnc2c3ccc(-c4c(C)nnn4C)nc3n([C@@H](c3ccccc3)C3CCOCC3)c2c1 [Example 164, 5,11-Bis(dimethyl-1H-1,2,3-triazol-5-yl)-8-[(R)-oxan-4-yl(phenyl)methyl]-3,8,10-triazatricyclo[7.4.0.0^2,^7]trideca-1(9),2(7),3,5,10,12-hexaene]",< 10 nM
22,"COC(=O)c1cnc(OC)c2c3ncc(-c4c(C)noc4C)cc3n([C@H](c3ccccc3)C3CCOCC3)c12 [Example 140, Methyl 5-(dimethyl-1,2-oxazol-4-yl)-13-methoxy-8-[(S)-oxan-4-yl(phenyl)methyl]-3,8,12-triazatricyclo[7.4.0.0^2,^7]trideca-1(13),2(7),3,5,9,11-hexaene-10-carboxylate]",< 1 nM
23,"[2H]C([2H])([2H])c1nnn(C)c1-c1cnc2c3cnc(S(C)(=O)=O)cc3n([C@H](c3ccccc3)C3CCOCC3)c2c1 [Example 201, 11-Methanesulfonyl-5-[4-(^2H3)methyl-1-methyl-1H-1,2,3-triazol-5-yl]-8-[(S)-oxan-4-yl(phenyl)methyl]-3,8,12-triazatricyclo[7.4.0.0^2,^7]trideca-1(9),2(7),3,5,10,12-hexaene]",< 10 nM
24,"Cc1nnn(C)c1-c1cnc2c3ccc(-c4c(C)nnn4C)nc3n([C@H](c3ccccc3F)C3CCOCC3)c2c1 [Example 227, 5,11-Bis(dimethyl-1H-1,2,3-triazol-5-yl)-8-[(S)-(2-fluorophenyl)(oxan-4-yl)methyl]-3,8,10-triazatricyclo[7.4.0.0^2,^7]trideca-1(13),2(7),3,5,9,11-hexaene]",< 1 nM
25,"[2H]C([2H])([2H])c1nnn(C)c1-c1cnc2c3ccc(-c4c(C([2H])([2H])[2H])nnn4C)nc3n(C(c3ncccc3F)C3CCOCC3)c2c1 (stereo not shown) [Example 247, 8-[(3-Fluoropyridin-2-yl)(oxan-4-yl)methyl]-5,11-bis[4-(^2H3)methyl-1-methyl-1H-1,2,3-triazol-5-yl]-3,8,10-triazatricyclo[7.4.0.0^2,^7]trideca-1(13),2(7),3,5,9,11-hexaene]",< 1 nM
